Tested on: Solanum tuberosum
Experiment: Inhibition of ascorbic acid biosynthesis in potato tuber at 20 uM
Format: functional

SMILES	inhibition at 20 µM
O[C@H]1[C@H]2c3cc4c(cc3CN3CCC(=C[C@@H]1O)[C@H]23)OCO4 [LYCORINE]	80%
CO[C@H]1C=C2CCN3Cc4cc5c(cc4[C@H]([C@@H]1O)[C@@H]23)OCO5 [HIPPPAMINE]	58%
